# Data reported in patent publication US8778919B2, “Cyclic anilino—pyridinotriazines” (Janssen Pharmaceutica NV, priority 2005, dated 2014).
# What was measured:
# Type in all cases: biochemical
# [1] = biological target: GSK-3α (Homo sapiens, UniProt P49840); assay: GSK-3 kinase assay (C1), GSK-3α; settings: 1 μM ATP, read-out: C1 Score α
# Outline: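 Radiometric SPA at room temperature in 25 mM Tris pH 7.4 with 10 mM MgCl2, 1 mM DTT, 5.7 ng/μl GSK-3β or 0.25 ng/μl GSK-3α, 5 μM biotinylated CREB peptide and 1 μM ATP plus ^33P-ATP. Stopped after 1 h; IC50 from dose-response versus no-compound control, reported as pIC50 score bands.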
# [2] = biological target: CDK1/cyclinB (h) (Homo sapiens, UniProt P06493); assay: Kinase profiling C3.2 CDK1/cyclinB human; settings: test concentration of 10^−6 M
# Sequence of CDK1/cyclinB (h) (P06493 whole entry): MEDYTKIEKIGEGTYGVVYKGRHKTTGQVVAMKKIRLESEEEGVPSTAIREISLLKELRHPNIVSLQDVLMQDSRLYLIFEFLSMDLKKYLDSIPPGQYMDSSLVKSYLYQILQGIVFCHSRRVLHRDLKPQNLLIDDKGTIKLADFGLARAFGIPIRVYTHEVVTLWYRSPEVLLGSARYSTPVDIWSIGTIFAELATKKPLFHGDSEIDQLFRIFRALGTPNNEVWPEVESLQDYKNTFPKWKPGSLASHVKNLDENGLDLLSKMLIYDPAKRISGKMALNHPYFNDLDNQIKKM
# Sequence of CDK1/cyclinB (h) (P14635 whole entry partner): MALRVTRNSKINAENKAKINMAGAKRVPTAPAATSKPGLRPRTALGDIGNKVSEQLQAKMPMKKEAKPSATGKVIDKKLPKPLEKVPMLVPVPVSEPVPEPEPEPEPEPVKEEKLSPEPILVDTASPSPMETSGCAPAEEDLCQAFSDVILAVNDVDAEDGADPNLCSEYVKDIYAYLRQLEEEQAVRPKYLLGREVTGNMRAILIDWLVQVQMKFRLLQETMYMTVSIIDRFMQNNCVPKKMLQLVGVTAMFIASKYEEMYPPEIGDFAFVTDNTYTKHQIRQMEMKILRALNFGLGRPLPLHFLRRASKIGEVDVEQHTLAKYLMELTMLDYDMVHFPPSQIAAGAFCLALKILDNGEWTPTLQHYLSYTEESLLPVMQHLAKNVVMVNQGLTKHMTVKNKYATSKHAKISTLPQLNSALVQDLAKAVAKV
# Outline: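 Radiometric filter-binding assay: human CDK1/cyclinB (5-10 mU) with 0.1 mg/ml histone H1 substrate and [γ-33P]ATP in 8 mM MOPS pH 7.0, 10 mM Mg acetate, 40 min at room temperature. Stopped with phosphoric acid; substrate-bound 33P counted on P30 filtermat by scintillation.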
# [3] = biological target: CDK2/cyclinA (h) (Homo sapiens, UniProt P24941); assay: Kinase profiling C3.3 CDK2/cyclinA human; settings: test concentration of 10^−6 M
# Outline: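 Human CDK2/cyclinA (5-10 mU) phosphorylates 0.1 mg/ml histone H1 in 8 mM MOPS pH 7.0, EDTA, 10 mM Mg acetate with [γ-33P]ATP, 40 min at room temperature. After phosphoric acid stop, filter-bound 33P counted by scintillation.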
# [4] = biological target: CDK2/cyclinE (h) (Homo sapiens, UniProt P24941); assay: Kinase profiling C3.4 CDK2/cyclinE human; settings: test concentration of 10^−6 M
# Outline: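 Radiometric filter-binding assay: 5-10 mU enzyme with 0.1 mg/ml histone H1 in 8 mM MOPS pH 7.0, 0.2 mM EDTA, 10 mM Mg acetate and [γ-33P]ATP. Incubated 40 min at room temperature, stopped with phosphoric acid. Substrate-bound 33P counted on P30 filtermat.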
# [5] = biological target: CDK3/cyclinE (h) (Homo sapiens, UniProt Q00526); assay: Kinase profiling C3.5 CDK3/cyclinE human; settings: test concentration of 10^−6 M
# Outline: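 Human CDK3/cyclinE (5-10 mU) phosphorylated 0.1 mg/ml histone H1 in 8 mM MOPS pH 7.0, 0.2 mM EDTA and 10 mM MgAcetate with [γ-33P]ATP. Reaction ran 40 min at room temperature and was stopped with phosphoric acid. Substrate-bound radioactivity was captured on P30 filtermat and measured by scintillation counting.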
# [6] = biological target: CDK7/cyclinH/MAT1 (h) (Homo sapiens, UniProt P50613); assay: Kinase profiling C3.8 CDK7/cyclinH/MAT1 human; settings: CDK7/cyclinH/MAT1, test concentration of 10^−6 M
# Sequence of CDK7/cyclinH/MAT1 (h) (P50613 whole entry): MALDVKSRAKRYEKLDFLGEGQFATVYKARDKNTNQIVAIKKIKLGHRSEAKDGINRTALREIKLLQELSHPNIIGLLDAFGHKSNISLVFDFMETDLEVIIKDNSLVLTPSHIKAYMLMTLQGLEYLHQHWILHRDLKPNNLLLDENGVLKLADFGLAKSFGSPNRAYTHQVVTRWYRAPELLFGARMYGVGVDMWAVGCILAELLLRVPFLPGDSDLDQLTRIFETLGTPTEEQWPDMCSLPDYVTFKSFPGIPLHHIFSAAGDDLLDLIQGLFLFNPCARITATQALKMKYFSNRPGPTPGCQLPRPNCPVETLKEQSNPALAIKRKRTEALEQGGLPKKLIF
# Sequence of CDK7/cyclinH/MAT1 (h) (P51946 whole entry partner): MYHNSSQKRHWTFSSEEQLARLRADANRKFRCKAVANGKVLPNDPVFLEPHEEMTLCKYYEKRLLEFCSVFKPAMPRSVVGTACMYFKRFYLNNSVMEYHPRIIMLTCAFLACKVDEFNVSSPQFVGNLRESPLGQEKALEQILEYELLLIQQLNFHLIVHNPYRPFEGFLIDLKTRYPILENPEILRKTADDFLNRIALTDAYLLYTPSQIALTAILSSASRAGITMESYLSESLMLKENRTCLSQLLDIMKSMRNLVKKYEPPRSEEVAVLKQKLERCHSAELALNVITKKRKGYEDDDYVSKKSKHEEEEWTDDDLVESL
# Sequence of CDK7/cyclinH/MAT1 (h) (P51948 whole entry partner): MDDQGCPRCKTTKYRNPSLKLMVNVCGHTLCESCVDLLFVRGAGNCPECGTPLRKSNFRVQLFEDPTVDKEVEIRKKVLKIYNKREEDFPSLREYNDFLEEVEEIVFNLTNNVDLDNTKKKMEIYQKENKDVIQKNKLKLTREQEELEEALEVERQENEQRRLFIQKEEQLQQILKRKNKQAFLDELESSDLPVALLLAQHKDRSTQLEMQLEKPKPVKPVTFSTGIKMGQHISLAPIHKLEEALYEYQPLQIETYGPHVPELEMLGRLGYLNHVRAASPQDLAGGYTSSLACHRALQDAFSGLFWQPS
# Outline: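 Human CDK7/cyclinH/MAT1 (5-10 mU) incubated 40 min at room temperature in 8 mM MOPS pH 7.0, 0.2 mM EDTA, 10 mM Mg acetate, 500 μM peptide substrate and [γ-^33P]ATP. Stopped with phosphoric acid; substrate phosphorylation measured by filter binding and scintillation counting.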
# Sequence of GSK-3α (P49840 whole entry, species assumed): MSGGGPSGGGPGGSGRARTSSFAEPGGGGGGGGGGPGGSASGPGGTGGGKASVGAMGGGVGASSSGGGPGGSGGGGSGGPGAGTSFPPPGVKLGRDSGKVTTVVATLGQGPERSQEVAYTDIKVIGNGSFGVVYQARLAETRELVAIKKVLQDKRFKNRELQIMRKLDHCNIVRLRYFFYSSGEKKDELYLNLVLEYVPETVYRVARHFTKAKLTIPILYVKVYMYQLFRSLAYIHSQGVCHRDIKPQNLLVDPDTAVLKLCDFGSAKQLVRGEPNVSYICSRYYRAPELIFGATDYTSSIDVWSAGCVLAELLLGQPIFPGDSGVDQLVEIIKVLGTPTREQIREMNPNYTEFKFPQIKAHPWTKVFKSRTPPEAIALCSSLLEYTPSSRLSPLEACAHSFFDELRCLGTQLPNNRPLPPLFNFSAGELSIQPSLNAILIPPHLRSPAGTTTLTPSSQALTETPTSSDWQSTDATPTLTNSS
IC50 [1] [nM],C3.2 score [2],C3.3 score [3],C3.4 score [4],C3.5 score [5],C3.8 score [6],SMILES
< 10,4 (Score 4 = >80% inhibition),2 (Score 2 = 30-60% inhibition),4 (Score 4 = >80% inhibition),4 (Score 4 = >80% inhibition),4 (Score 4 = >80% inhibition),O=C1NCCCc2cc(ccc2F)-c2ncnc(n2)Nc2cc(Cl)cc(c2)CN[C@H]1CO [Compound 71]
< 10,4 (Score 4 = >80% inhibition),3 (Score 3 = 60-80% inhibition),4 (Score 4 = >80% inhibition),3 (Score 3 = 60-80% inhibition),1 (Score 1 = 10-30% inhibition),O=C1NCCCc2cncc(c2)-c2ncnc(n2)Nc2cccc(c2)CN[C@H]1CO [Compound 81]
